In patent publication US6603023B2 (priority 1996, dated 2003):
Read-outs that look alike come from different tables or passages of the source.

Legend:
[1] = test system: CCRF-CEM human T-cell acute lymphoblastic leukemia cell line; test: XTT cytotoxicity (cell growth inhibition), CCRF-CEM
Summary of the method: (§1)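 Growth was read by XTT/PMS reduction over 4 h at 37 °C after 72 h of compound treatment, with absorbance at 450 nm and 630 nm. CCRF-CEM, P388 and their resistant sublines, grown continuously with their selecting drugs, were cultured in duplicate at 5×10^4 cells/mL. The medium was RPMI-1640 with 10% FBS.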

[2] = test system: CCRF-CEM/Taxol®; test: cells; format: cell-based, human; conditions: Table 1A
Summary of the method: as §1

[3] = test system: CCRF-CEM/VBL100; test: cells; format: cell-based, human; conditions: for fold resistance (cross-resistance) vs parent CCRF-CEM: CCRF-CEM/VBL100 MDR cells; for IC50: read-out: IC50
Summary of the method: as §1

[4] = test system: CCRF-CEM/VM1; test: cells; format: cell-based, human; conditions: for IC50: XTT, read-out: IC50
Summary of the method: as §1

[5] = test system: DC-3F hamster lung fibroblast cell line; test: SRB cytotoxicity, DC-3F; format: cell-based; conditions: Table 1C; SRB, 72 h; read-out: IC50
Summary of the method: (§2)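 Cellular protein content measured with sulforhodamine B after trichloroacetic acid fixation, read at 570 nm. Each duplicate run used six to seven concentrations, analysed by the median-effect method. Cells were cultured at 37 °C, 5% CO2 in RPMI 1640-10% FBS, and drug-resistant lines were maintained with their selecting agent.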

[6] = test system: murine leukemic P388/0; test: XTT cytotoxicity, P388/0; format: cell-based; conditions: Table 1C; XTT, 72 h; read-out: IC50
Summary of the method: as §1

[7] = test system: P388/Adr; test: cells; format: cell-based, murine; conditions: Table 1C
Summary of the method: as §1

[8] = test system: human neuroblastoma SK-N-As; test: SRB cytotoxicity, SK-N-As; format: cell-based; conditions: Table 1C; SRB, 72 h; read-out: IC50
Summary of the method: as §2

[9] = test system: SK-N-FI; test: cells; format: cell-based, human
Summary of the method: as §2

[10] = test system: MCF-7/Adr; test: cells; format: cell-based, human; conditions: Table 1C
Summary of the method: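 Sulforhodamine B readout: TCA-fixed cultures stained 30 min with 0.4% SRB, bound dye extracted in unbuffered Tris and read at 570 nm. Duplicate experiments, six to seven drug concentrations per run.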

[11] = test system: Human CCRF-CEM Xenograft; test: CCRF-CEM xenograft in scid mice; format: in vivo, CB-17 scid mice; conditions: for mice died of drug toxicity: 7 mice
[12] = test system: Human CCRF-CEM/VBL Xenograft; test: CCRF-CEM/VBL xenograft in scid mice; format: in vivo, CB-17 scid mice
[13] = dose 0.7 i.p. QD d7-10,14,15, day 7
[14] = dose 0.7 i.p. QD d7-10,14,15, day 12
[15] = dose 0.7 i.p. QD d7-10,14,15, day 17
[16] = dose 0.7 i.p. QD d7-10,14,15, day 22
[17] = dose 1.0 i.p. QD d7-10,14,15, day 7
[18] = dose 1.0 i.p. QD d7-10,14,15, day 12
[19] = dose 1.0 i.p. QD d7-10,14,15, day 17
[20] = dose 1.0 i.p. QD d7-10,14,15, day 22

C/C(=C\c1csc(C)n1)[C@@H]1C[C@@H]2O[C@]2(C)CCC[C@H](C)[C@H](O)[C@@H](C)C(=O)C(C)(C)[C@@H](O)CC(=O)O1 [Epothilone B, epothilone B]
IC50 [1]: 0.35 nM | fold more potent than Epo A ([1]; CCRF-CEM cells): 6 fold | fold more potent than Taxol ([1]; CCRF-CEM cells): 10 fold | Rel. Value (potency relative to Epo B) ([1]; CCRF-CEM leukemic cells): 1 | IC50 ([1]; Table 1, XTT): 0.4 nM | (C)/(A) IC50 ratio ([2]; CCRF-CEM/Taxol vs CCRF-CEM): 3.1 | IC50 ([2]; XTT, 72 h, read-out: IC50): 1.1 nM | fold resistance (cross-resistance) vs parent CCRF-CEM [3]: 5 fold | fold resistance (cross-resistance) vs parent CCRF-CEM ([3]; listed as EpoB): 6.1 fold | Potency in parentheses relative to Epo B in CCRF-CEM cells ([3]; CCRF-CEM/VBL MDR cells): 1/6 | Potency in square brackets relative to Epo B in CCRF-CEM/VBL MDR cells ([3]; CCRF-CEM/VBL MDR cells): 1 | IC50 ([3]; Table 1, XTT): 3 nM | (B)/(A) IC50 ratio ([3]; Table 1A, CCRF-CEM/VBL100 vs CCRF-CEM): 6.1 | IC50 ([3]; listed as Epo B): 2.1 nM | IC50 [3]: 2 nM | IC50 ([4]; Table 1): 2 nM | (D)/(A) IC50 ratio ([4]; Table 1A, CCRF-CEM/VM1 vs CCRF-CEM): 3.6 | IC50 ([4]; Table 1A, 72 h): 1.3 nM | IC50 [5]: 0.6 nM | IC50 [6]: 0.29 nM | folds of resistance (IC50 ratio vs parent cell line) ([7]; P388/Adr vs P388/O): (5.5x) | IC50 ([7]; XTT, 72 h, read-out: IC50): 1.6 nM | IC50 [8]: 4 nM | fold resistance vs parent SK-N-As ([9]; SK-N-F1 cells): 25 fold | folds of resistance (IC50 ratio vs parent cell line) ([9]; Table 1C, SK-N-FI vs SK-N-As): (25x) | IC50 ([9]; Table 1C, SRB, 72 h, read-out: IC50): 10 nM | folds of resistance (IC50 ratio vs parent cell line) ([10]; MCF-7/Adr vs MCF-7): (5.4x) | IC50 ([10]; SRB, 72 h, read-out: IC50): 2.7 nM | mice died of drug toxicity ([11]; Epo B dose 0.7 i.p., day 19 & 20): ^4.Two mice died of drug toxicity on day 19 & 20. | mice died of drug toxicity ([11]; Epo B dose 1.0 i.p., day 18, 19 and 21): ^5.Three mice died of drug toxicity on day 18, 19 and 21. | Average weight change [11, 13]: −0.1 | Average tumor volume (control = 1.00) [11, 14]: 0.53 | Average weight change [11, 14]: −0.7 | Average tumor volume (control = 1.00) [11, 15]: 0.48 | Average weight change [11, 15]: −1.4 | Average tumor volume (control = 1.00) [11, 16]: 0.46 | Average weight change [11, 16]: +0.3 | Average weight change [11, 17]: +0.1 | Average tumor volume (control = 1.00) [11, 18]: 0.46 | Average weight change [11, 18]: −1.5 | Average tumor volume (control = 1.00) [11, 19]: 0.35 | Average weight change [11, 19]: −2.4 | Average tumor volume (control = 1.00) [11, 20]: 0.43 | Average weight change [11, 20]: +0.1 | mice died of drug toxicity ([12]; Epo B dose 1.0 i.p., 7 mice, day 17): ^6.One mouse died of drug toxicity on day 17. | Average weight change [12, 13]: +0.1 | Average tumor volume (control = 1.00) [12, 14]: 0.32 | Average weight change [12, 14]: −0.7 | Average tumor volume (control = 1.00) [12, 15]: 0.40 | Average weight change [12, 15]: −1.0 | Average tumor volume (control = 1.00) [12, 16]: 0.33 | Average weight change [12, 16]: −0.2 | Average weight change [12, 17]: −0.2 | Average tumor volume (control = 1.00) [12, 18]: 0.41 | Average weight change [12, 18]: −1.3 | Average tumor volume (control = 1.00) [12, 19]: 0.27 | Average weight change [12, 19]: −2.1 | Average tumor volume (control = 1.00) [12, 20]: 0.31 | Average weight change [12, 20]: −0.5
